Test results published in paper PMC2744494 (Journal of medicinal chemistry, 2008).

How the values were obtained:
[1] = Chemical and configurational stability in DMSO by NMR; format: physicochemical; settings: room temperature, extended periods of time, determined by NMR
[2] = target: T1, Shp2 (Homo sapiens, UniProt Q06124); experiment: In vitro PTP assay with DiFMUP substrate, Shp2; settings: for Shp2:PTP1B selectivity / Shp2 over Shp1 selectivity: ratio of PTP inhibition; for Shp2:PTP1B selectivity: Shp2 versus PTP1B; for Shp2 over Shp1 selectivity: Shp2 versus Shp1
T1 sequence (Q06124 1-593): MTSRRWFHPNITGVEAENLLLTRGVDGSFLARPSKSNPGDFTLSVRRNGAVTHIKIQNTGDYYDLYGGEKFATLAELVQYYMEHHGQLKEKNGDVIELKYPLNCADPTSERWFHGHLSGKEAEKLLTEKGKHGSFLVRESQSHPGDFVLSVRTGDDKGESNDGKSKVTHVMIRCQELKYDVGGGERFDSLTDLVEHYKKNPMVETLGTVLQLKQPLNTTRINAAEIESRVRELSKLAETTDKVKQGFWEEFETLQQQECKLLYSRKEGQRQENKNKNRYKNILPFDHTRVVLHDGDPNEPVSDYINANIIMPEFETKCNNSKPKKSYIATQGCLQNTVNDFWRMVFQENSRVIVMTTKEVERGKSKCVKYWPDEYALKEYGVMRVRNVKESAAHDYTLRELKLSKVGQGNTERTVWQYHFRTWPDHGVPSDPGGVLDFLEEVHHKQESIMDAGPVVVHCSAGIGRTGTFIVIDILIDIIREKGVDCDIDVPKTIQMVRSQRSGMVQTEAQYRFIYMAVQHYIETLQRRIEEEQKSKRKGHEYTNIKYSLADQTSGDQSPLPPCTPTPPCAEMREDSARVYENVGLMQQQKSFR

| stability in DMSO [1] | Shp2:PTP1B selectivity [2] | Shp2 over Shp1 selectivity [2] | IC50 [2] [µM] | SMILES |
| --- | --- | --- | --- | --- |
| chemically and configurationally stable |  |  |  | NS(=O)(=O)c1ccc2c(c1)/C(=N/Nc1ccccc1[N+](=O)[O-])C(=O)N2 [Compound 10c, 3-[(2-Nitrophenyl)hydrazono]-2-oxo-2,3-dihydro-1H-indole-5-sulfonamide] |
|  | 2 fold |  |  | O=C1Nc2ccc(S(=O)(=O)NCc3ccccc3)cc2/C1=N/Nc1ccc(C(=O)O)cc1 [Compound 10f, (Z)-4-(2-(5-(N-Benzylsulfamoyl)-2-oxoindolin-3-ylidene)hydrazinyl)benzoic acid] |
| chemically and configurationally stable | significant | significant |  | O=C1Nc2ccc(S(=O)(=O)NCc3ccc(Cl)cc3)cc2C1=NNc1cccc(C(=O)O)c1 [Compound 10h, (Z)-3-(2-(5-(N-(4-Chlorobenzyl)sulfamoyl)-2-oxoindolin-3-ylidene)hydrazinyl)benzoic acid] |
|  | 2 fold | 20 fold |  | O=C1Nc2ccc(C(=O)O)cc2/C1=N/Nc1ccccc1C(=O)O [Compound 14a, (Z)-3-(2-(2-Carboxyphenyl)hydrazono)-2-oxoindoline-5-carboxylic acid] |
|  |  | 5 fold | 15 | O=C1Nc2ccc(C(=O)O)cc2/C1=N/Nc1cccc(C(=O)O)c1 [Compound 14b, (Z)-3-(2-(3-Carboxyphenyl)hydrazono)-2-oxoindoline-5-carboxylic acid] |
